Biological target: 5-HT2A (Homo sapiens (Human), UniProt P28223)
Assay: Radioligand binding assay, [^3H]5-HT competition, 5-HT2A
Settings: [^3H]5-HT radioligand, membranes of HEK293 cells expressing recombinant 5-HT2A; Ki from IC50 by Cheng-Prusoff; read-out: 5-HT2A serotonin binding Ki value

Sequence of 5-HT2A (P28223 whole entry): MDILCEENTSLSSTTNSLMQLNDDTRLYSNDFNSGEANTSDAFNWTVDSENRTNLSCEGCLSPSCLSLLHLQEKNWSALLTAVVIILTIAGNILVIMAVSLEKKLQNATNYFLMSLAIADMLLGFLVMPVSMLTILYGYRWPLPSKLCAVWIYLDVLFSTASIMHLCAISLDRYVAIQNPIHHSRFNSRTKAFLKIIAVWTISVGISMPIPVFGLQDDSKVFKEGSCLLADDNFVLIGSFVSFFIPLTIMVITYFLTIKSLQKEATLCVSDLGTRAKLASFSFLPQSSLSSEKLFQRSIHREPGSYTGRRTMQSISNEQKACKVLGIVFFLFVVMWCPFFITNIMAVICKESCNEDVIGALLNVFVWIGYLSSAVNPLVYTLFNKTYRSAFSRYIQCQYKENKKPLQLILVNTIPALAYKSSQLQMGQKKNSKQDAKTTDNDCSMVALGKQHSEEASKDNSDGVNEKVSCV

Compound | Ki [nM]
Cc1ncnc(C)c1-c1cc(NC(=O)C2CC2)ccc1OCCN1CCN2C(=O)CCC2C1 (centres unmarked) [Compound 346, N-(3-(4,6-dimethylpyrimidin-5-yl)-4-(2-(6-oxohexahydropyrrolo[1,2-a]pyrazin-2 (1H)-yl)ethoxy)phenyl)cyclopropanecarboxamide] | 31
Cc1ncnc(C)c1-c1cc(NC(=O)C2CC2)ccc1OCCN1CCC2(CC1)CNC2=O [Compound 347, N-(3-(4,6-dimethylpyrimidin-5-yl)-4-(2-(1-oxo-2,7-diazaspiro[3.5]nonan-7-yl)ethoxy)phenyl)cyclopropanecarboxamide] | 42.3
Cc1ncnc(C)c1-c1cc(NC(=O)C2CC2)ccc1OCCN1CCC2(CC1)CC(=O)N2 [Compound 348, N-(3-(4,6-dimethylpyrimidin-5-yl)-4-(2-(2-oxo-1,7-diazaspiro[3.5]nonan-7-yl)ethoxy)phenyl)cyclopropanecarboxamide] | 66.6
Cc1ncnc(C)c1-c1cc(NC(=O)C2CC2)ccc1OCCN1CCC2(CCC(=O)O2)CC1 [Compound 349, N-(3-(4,6-dimethylpyrimidin-5-yl)-4-(2-(2-oxo-1-oxa-8-azaspiro[4.5]decan-8-yl)ethoxy)phenyl)cyclopropanecarboxamide] | 12.6
Cc1ncnc(C)c1-c1cc(NC(=O)C2CC2)ccc1OCCN1CCC2(CCOC2=O)CC1 [Compound 350, N-(3-(4,6-dimethylpyrimidin-5-yl)-4-(2-(1-oxo-2-oxa-8-azaspiro[4.5]decan-8-yl)ethoxy)phenyl)cyclopropanecarboxamide] | 43.1
CO[C@H]1CCN(CCOc2ccc(NC(=O)C3CC3)cc2-c2c(C)ncnc2C)C1 [Compound 352, (S)—N-(3-(4,6-dimethylpyrimidin-5-yl)-4-(2-(3-methoxypyrrolidin-1-yl)ethoxy)phenyl)cyclopropanecarboxamide] | 15.5
COCCN(C)CCOc1ccc(NC(=O)C2CC2)cc1-c1c(C)ncnc1C [Compound 354, N-[3-(4,6-dimethylpyrimidin-5-yl)-4-[2-[2-methoxyethyl(methyl)amino]ethoxy]phenyl]cyclopropanecarboxamide] | 32.1
CCN(CCOC)CCOc1ccc(NC(=O)C2CC2)cc1-c1c(C)ncnc1C [Compound 355, N-(3-(4,6-dimethylpyrimidin-5-yl)-4-(2-(ethyl (2-methoxyethyl)amino)ethoxy)phenyl)cyclopropanecarboxamide] | 177
CCCN(CCOC)CCOc1ccc(NC(=O)C2CC2)cc1-c1c(C)ncnc1C [Compound 356, N-(3-(4,6-dimethylpyrimidin-5-yl)-4-(2-((2-methoxyethyl)(propyl)amino)ethoxy)phenyl)cyclopropanecarboxamide] | 533
Cc1ncnc(C)c1-c1cc(NC(=O)C2CC2)ccc1OCCN(C)CCO [Compound 357, N-(3-(4,6-dimethylpyrimidin-5-yl)-4-(2-((2-hydroxyethyl)(methyl)amino)ethoxy)phenyl)cyclopropanecarboxamide] | 47.3
CCN(CCO)CCOc1ccc(NC(=O)C2CC2)cc1-c1c(C)ncnc1C [Compound 358, N-(3-(4,6-dimethylpyrimidin-5-yl)-4-(2-(ethyl(2-hydroxyethyl)amino)ethoxy)phenyl)cyclopropanecarboxamide] | 66.7
CCCN(CCO)CCOc1ccc(NC(=O)C2CC2)cc1-c1c(C)ncnc1C [Compound 359, N-(3-(4,6-dimethylpyrimidin-5-yl)-4-(2-((2-hydroxyethyl)(propyl)amino)ethoxy)phenyl)cyclopropanecarboxamide] | 102
Cc1ncnc(C)c1-c1cc(NC(=O)C2CC2)ccc1OCCN(C)CCF [Compound 360, N-(3-(4,6-dimethylpyrimidin-5-yl)-4-(2-((2-fluoroethyl)(methyl)amino)ethoxy)phenyl)cyclopropanecarboxamide] | 11
CCN(CCF)CCOc1ccc(NC(=O)C2CC2)cc1-c1c(C)ncnc1C [Compound 362, N-[3-(4,6-dimethylpyrimidin-5-yl)-4-[2-[ethyl (2-fluoroethyl)amino]ethoxy]phenyl]cyclopropanecarboxamide] | 96.5
